Reference: the supplement of paper PMC10627819

Experiments:
Details in all cases: main component drawn
S. aureus Newman [1] = assay: fitness (endpoint OD595 vs no drug) (fraction); higher = more growth
Method in brief: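 Background-subtracted growth curves were the basis for fitness, taken as the optical density at entry into stationary phase over the robust mean of no-drug control wells. A cap of 1 was applied. The curves came from OD595 readings every 30 min for 14 h at 37 °C, in 384-well plates seeded at OD595 0.01 with 30 µl, or 55 µl for S. pneumoniae.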

S. aureus Newman [2] = assay: Bliss interaction score (quartile over a dose matrix) (fitness difference); higher = more antagonism (negative = synergy)
Method in brief: (§1)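 Combination data were used to infer fitness under each single drug. Fitness is the OD595 at entry into stationary phase divided by the robust mean of the plate's no-drug wells, with a cap of 1. The Bliss score is the observed minus the expected product fitness, summarised by quartiles over technical, biological and donor/recipient replicates.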

S. aureus DSM 20231 = assay: as above
Method in brief: as §1

S. pneumoniae D39V = assay: as above
Method in brief: as §1

B. subtilis 168 = assay: as above
Method in brief: as §1
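Throughout, for Bliss interaction score (quartile over a dose matrix): first quartile when negative (synergy) and third quartile when positive (antagonism).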

CC[C@H](C)[C@H](N)C1=N[C@H](C(=O)N[C@@H](CC(C)C)C(=O)N[C@H](CCC(=O)O)C(=O)N[C@H](C(=O)N[C@H]2CCCCNC(=O)[C@H](CC(N)=O)NC(=O)[C@@H](CC(=O)O)NC(=O)[C@H](Cc3cnc[nH]3)NC(=O)[C@@H](Cc3ccccc3)NC(=O)[C@H]([C@@H](C)CC)NC(=O)[C@@H](CCCN)NC2=O)[C@@H](C)CC)CS1 [Bacitracin] + CO/N=C(\C(=O)N[C@@H]1C(=O)N2C(C(=O)[O-])=C(C[N+]3(C)CCCC3)CS[C@H]12)c1csc(N)n1 [Cefepime]
fitness, S. aureus Newman [1]
Details | first compound 18.75 µg/mL | first compound 37.5 µg/mL | first compound 75 µg/mL
partner 0.125 µg/mL | 0.699 | – | 0.0274
partner 0.25 µg/mL | 0.634 | – | 0.0298
partner 0.5 µg/mL | – | 0.0986 | 0.0408

Details | Bliss interaction score
B. subtilis 168 | -0.124
S. aureus DSM 20231 | 0.0889
S. aureus Newman [2] | -0.0863
S. pneumoniae D39V | -0.144

CC[C@H](C)[C@H](N)C1=N[C@H](C(=O)N[C@@H](CC(C)C)C(=O)N[C@H](CCC(=O)O)C(=O)N[C@H](C(=O)N[C@H]2CCCCNC(=O)[C@H](CC(N)=O)NC(=O)[C@@H](CC(=O)O)NC(=O)[C@H](Cc3cnc[nH]3)NC(=O)[C@@H](Cc3ccccc3)NC(=O)[C@H]([C@@H](C)CC)NC(=O)[C@@H](CCCN)NC2=O)[C@@H](C)CC)CS1 [Bacitracin] + C/C(=C\C(=O)OCCCCCCCCC(=O)O)C[C@@H]1OC[C@H](C[C@@H]2O[C@H]2[C@@H](C)[C@H](C)O)[C@@H](O)[C@H]1O [Pseudomonic acid]
fitness, S. aureus Newman [1], one replicate
Details | first compound 18.75 µg/mL | first compound 37.5 µg/mL | first compound 75 µg/mL
partner 0.0313 µg/mL | 0.0438 | 0.029 | 0.0257
partner 0.0625 µg/mL | 0.0196 | 0.0219 | 0.0077
partner 0.125 µg/mL | 0.0416 | 0.0193 | 0.0115

Details | Bliss interaction score
B. subtilis 168 | -0.0784
S. aureus DSM 20231 | 0.0189
S. aureus Newman [2] | 0.0307
S. pneumoniae D39V | -0.0953

CC[C@H](C)[C@H](N)C1=N[C@H](C(=O)N[C@@H](CC(C)C)C(=O)N[C@H](CCC(=O)O)C(=O)N[C@H](C(=O)N[C@H]2CCCCNC(=O)[C@H](CC(N)=O)NC(=O)[C@@H](CC(=O)O)NC(=O)[C@H](Cc3cnc[nH]3)NC(=O)[C@@H](Cc3ccccc3)NC(=O)[C@H]([C@@H](C)CC)NC(=O)[C@@H](CCCN)NC2=O)[C@@H](C)CC)CS1 [Bacitracin] + CCCCCCCCCC(=O)N[C@@H]1[C@H]([C@@H]([C@H](O[C@H]1OC2=C3C=C4C=C2OC5=C(C=C(C=C5)[C@H]([C@H]6C(=O)N[C@@H](C7=C(C(=CC(=C7)O)OC8[C@H]([C@H]([C@@H]([C@H](O8)CO)O)O)O)C9=C(C=CC(=C9)[C@H](C(=O)N6)NC(=O)[C@@H]4NC(=O)[C@@H]1C2=CC(=CC(=C2)OC2=C(C=CC(=C2)[C@H](C(=O)N[C@H](CC2=CC(=C(O3)C=C2)Cl)C(=O)N1)N)O)O)O)C(=O)O)O[C@H]1[C@@H]([C@H]([C@@H]([C@H](O1)CO)O)O)NC(=O)C)Cl)CO)O)O [Teicoplanin]
fitness, S. aureus Newman [1]
Details | first compound 18.75 µg/mL | first compound 37.5 µg/mL | first compound 75 µg/mL
partner 0.1562 µg/mL | 0.777 | 0.249 | 0.0017
partner 0.3125 µg/mL | 0.77 | 0.202 | 0.0042
partner 0.625 µg/mL | 0.683 | 0.206 | 0

fitness, S. aureus Newman [1], one replicate
Details | first compound 18.75 µg/mL | first compound 37.5 µg/mL | first compound 75 µg/mL
partner 0.62 µg/mL | 0.543 | 0.0346 | 0.0093
partner 1.24 µg/mL | 0.424 | 0.0167 | 0.0003
partner 2.48 µg/mL | 0.0859 | 0.0387 | 0.0349

Details | Bliss interaction score
B. subtilis 168 | -0.119
S. aureus DSM 20231 | -0.0716
S. aureus Newman [2] | 0.0565
S. pneumoniae D39V | -0.0678

CN[C@@H]1[C@H](O[C@H]2[C@H](O[C@H]3[C@H](O)[C@@H](O)[C@H](N=C(N)N)[C@@H](O)[C@@H]3N=C(N)N)O[C@@H](C)[C@]2(O)C=O)O[C@@H](CO)[C@H](O)[C@H]1O [Streptomycin] + CCCCCCCCCC(=O)N[C@@H]1[C@H]([C@@H]([C@H](O[C@H]1OC2=C3C=C4C=C2OC5=C(C=C(C=C5)[C@H]([C@H]6C(=O)N[C@@H](C7=C(C(=CC(=C7)O)OC8[C@H]([C@H]([C@@H]([C@H](O8)CO)O)O)O)C9=C(C=CC(=C9)[C@H](C(=O)N6)NC(=O)[C@@H]4NC(=O)[C@@H]1C2=CC(=CC(=C2)OC2=C(C=CC(=C2)[C@H](C(=O)N[C@H](CC2=CC(=C(O3)C=C2)Cl)C(=O)N1)N)O)O)O)C(=O)O)O[C@H]1[C@@H]([C@H]([C@@H]([C@H](O1)CO)O)O)NC(=O)C)Cl)CO)O)O [Teicoplanin]
fitness, S. aureus Newman [1]
Details | first compound 1 µg/mL | first compound 2 µg/mL | first compound 4 µg/mL
partner 0.1562 µg/mL | ≥ 1 | ≥ 1 | –
partner 0.3125 µg/mL | ≥ 1 | 0.932 | –
partner 0.625 µg/mL | 0.917 | 0.803 | 0.344

fitness, S. aureus Newman [1], one replicate
Details | first compound 2 µg/mL | first compound 4 µg/mL | first compound 8 µg/mL
partner 0.62 µg/mL | 0.737 | 0.574 | 0.0838
partner 1.24 µg/mL | 0.527 | 0.0741 | 0.0255
partner 2.48 µg/mL | 0.0707 | 0.0385 | 0.103

Details | Bliss interaction score
B. subtilis 168 | -0.0977
S. aureus DSM 20231 | -0.227
S. aureus Newman [2] | -0.118
S. pneumoniae D39V | -0.0928
